# Experimental data from patent publication US20230256139A1, “IMPLANT SURFACES FOR PAIN CONTROL” (The General Hospital Corporation, priority 2016, published 2023).
# Values joined by “and” are separate entries in the source; they are usually repeats but may differ in a detail not shown here. Equal values may be shown once. Read-outs that look alike come from different tables or passages of the source.
# Key:
# [1] = Elution of lidocaine-blended UHMWPE cubes in 40° C. DI water, FTIR lidocaine index profile; type: physicochemical; conditions: 0.25 wt % and 0.50 wt % lidocaine blends, up to 6 weeks
# Experimental: These cubes were then immersed in 40° C. DI water. Groups of n=3 cubes per each wt. % were removed from the DI water and analyzed via FTIR at the following time points: 0 weeks (Control), 1 week, 2 weeks, 4 weeks, and 6 weeks.
# [2] = for amount of lidocaine eluted: cubes doped 640 min at 100° C.
# Excerpt: The cubes were microtomed perpendicular to a surface plane in the middle of the said surface and the FTIR spectra of the thin sections prepared as described above were obtained as a function of depth from the surface towards the bulk.
# [3] = CISM 1 cm cubes, 120° C.
# [4] = cited from earlier work
compound,measurement,setting,value
"2-(Dimethylamino)-N-(2,6-Dimethylphenyl)acetamide [lidocaine]",surface concentration of lidocaine in UHMWPE with increasing elution time,[1],decrease
same,"lidocaine eluted, percent","[2]; 40° C. DI H2O, 1 day",13%
same,amount of lidocaine eluted,"[2]; 40° C. DI H2O, 1 day",1.4 ± 0.1 mg
same,"lidocaine eluted, percent","[2]; 40° C. DI H2O, 2 days",20%
same,amount of lidocaine eluted,"[2]; 40° C. DI H2O, 2 days",2.2 ± 0.1 mg
same,"lidocaine eluted, percent","[2]; 40° C. DI H2O, 7 days",34%
same,amount of lidocaine eluted,"[2]; 40° C. DI H2O, 7 days",3.6 ± 0.1 mg
same,"lidocaine eluted, percent","[2]; 40° C. DI H2O, 14 days",45%
same,amount of lidocaine eluted,"[2]; 40° C. DI H2O, 14 days",4.8 ± 0.1 mg
same,"lidocaine eluted, percent","[2]; 40° C. DI H2O, 28 days",59%
same,amount of lidocaine eluted,"[2]; 40° C. DI H2O, 28 days",6.3 ± 0.2 mg
same,"lidocaine eluted, percent","[2]; 40° C. DI H2O, 56 days",70%
same,amount of lidocaine eluted,"[2]; 40° C. DI H2O, 56 days",7.5 ± 0.1 mg
same,"lidocaine eluted, percent","[2]; 100° C. DI H2O, 0.6 hours",19%
same,amount of lidocaine eluted,"[2]; 100° C. DI H2O, 0.6 hours",2.0 ± 0.0 mg
same,"lidocaine eluted, percent","[2]; 100° C. DI H2O, 2.6 hours",38%
same,amount of lidocaine eluted,"[2]; 100° C. DI H2O, 2.6 hours",4.1 ± 0.1 mg
same,"lidocaine eluted, percent","[2]; 100° C. DI H2O, 5.3 hours",49%
same,amount of lidocaine eluted,"[2]; 100° C. DI H2O, 5.3 hours",5.2 ± 0.0 mg
same,"lidocaine eluted, percent","[2]; 100° C. DI H2O, 12 hours",70%
same,amount of lidocaine eluted,"[2]; 100° C. DI H2O, 12 hours",7.3 ± 0.0 mg
same,"lidocaine eluted, percent","[2]; 100° C. DI H2O, 24 hours",79%
same,amount of lidocaine eluted,"[2]; 100° C. DI H2O, 24 hours",8.6 ± 0.2 mg
same,"lidocaine eluted, percent","[2]; 100° C. DI H2O, 48 hours",85%
same,amount of lidocaine eluted,"[2]; 100° C. DI H2O, 48 hours",9.0 ± 0.1 mg
same,amount of lidocaine absorbed,[3]; doping time 1 hour,10.6 ± 0.3 mg
same,amount of lidocaine absorbed,[3]; doping time 2 hours,16.8 ± 0.1 mg
same,amount of lidocaine absorbed,[3]; doping time 6 hours,30.8 ± 0.2 mg and ~31 mg
same,amount of lidocaine absorbed,[3]; doping time 12 hours,40.3 ± 0.2 mg
same,amount of lidocaine absorbed,[3]; doping time 24 hours,52.1 ± 0.9 mg
same,amount of lidocaine absorbed,[3]; doping time […],3.0 ± 0.1 mg
"CCCCN1CCCCC1C(=O)Nc1c(C)cccc1C.Cl (stereo not shown) [bupivacaine hydrochloride, 1-Butyl-N-(2,6-dimethylphenyl)-2-piperidinecarboxamide hydrochloride]",solubility in cold water,[4],soluble
same,solubility in diethyl ether,[4],partially soluble
same,solubility in methanol,[4],easily soluble
